Measurements from patent US4096259A, “Non-amphetaminic psychostimulating compositions of 1,4-disubstituted piperazines” (priority 1975, dated 1978).

Experiments:
[1] = Acute toxicity (LD50) in mice, per os; conditions: mouse, in vivo, po
Description: Acute toxicity was studied by determining the LD50 in mice, the derivatives being administered per os.

[2] = system: exploration response in mice; assay: Psychostimulating activity: increase of exploration response in mice (actimetry); format: in vivo; conditions: Mus musculus, po, per os, dose which increases exploration response by 50%
Description: The psychostimulating activity was studied by determining the dose which increases the exploration response in mice (actimetry) by 50% (ED50),according to the method described by BOISSIER J.R. and SIMON P. (Arc. Int. Pharmacolyn, 1965, 212-221158).

sleep in mice = assay: Anti-sleep activity in mice; format: in vivo
[3] = system: dog cardiovascular system; assay: Secondary action on the dog cardiovascular system, intravenous; format: in vivo; conditions: intravenous administration
[4] = system: ptose with reserpine in mice; assay: Ptose antagonism with reserpine in mice; format: in vivo; conditions: Mus musculus, po, per os
[5] = Group toxicity (LD50 grouped mice / LD50 isolated mice); conditions: mouse, in vivo
[6] = system: mortality with pentetrazole in mice; assay: Potentiation of mortality with pentetrazole in mice; format: in vivo; conditions: per os
[7] = Chronic toxicity in rats, oral; format: in vivo; conditions: oral, 80 mg/kg daily, 6 out of 7 days
[8] = system: neurotic depression, neurasthenia and school overwork; assay: Clinical test in neurotic depression, neurasthenia and school overwork; format: in vivo, adults; conditions: 30 mg daily oral, one month
Description: By way of example, clinical tests were carried out on derivatives N° 5 and 21.
Derivative N° 5 was administered at a dose of 30 mg daily in three oral administrations of 10 mg to 6 adults treated for neurotic depression, neurasthenia and school overwork. The following results were obtained after treatment for one month: […]

aggressiveness in mice = assay: Aggressiveness in mice in the electric struggle test; format: in vivo; conditions: Mus musculus, po, per os, read-out: increase in aggressiveness in the electric struggle test ED50
Anorectic action in rats = format: in vivo
rat isolated duodenum = assay: In vitro papaverine spasmolytic activity: duodenum contractions in rats induced by barium chloride; conditions: for Spasmolytic activity (papaverine hydrochloride = 1): in vitro, rat duodenum, barium chloride, relative to papaverine hydrochloride = 1
Description: The papaverine spasmolytic activity was measured "in vitro" by the concentration ratio: active principle/papaverine hydrochloride concentration, which reduces duodenum contractions in rats, induced by barium chloride, by 50% according to the method of POMARET J. C., SERGANT - ODY M., POURRIAS B. and HUGUET G. (Therapie, 1969, 24, 109-143).
(§1) Table V below gives, by way of example, the complementary pharmacological activities such as antiserotonin, adrenolytic and atropinic activities for derivatives N° 21, 23 and 33, the spasmolytic activity of which is the greatest for the rat isolated duodenum.

rabbit isolated ear = assay: In vitro spasmolytic action on the rabbit isolated ear; conditions: papaverine hydrochloride = 1
Description: as §1

rabbit aorta = assay: In vitro spasmolytic action on the rabbit aorta; conditions: papaverine hydrochloride = 1
Description: as §1

paw vessels of the dog = assay: In vivo spasmolytic action on paw vessels of the dog; conditions: papaverine hydrochloride = 1
Description: as §1

Guinea-pig ileum = assay: In vitro atropinic action on the Guinea-pig ileum; conditions: Atropine sulfate = 1
Description: as §1

[9] = system: Guinea-pig seminal vesicle; assay: In vitro adrenolytic action on the Guinea-pig seminal vesicle; conditions: Yohimbine hydrochloride = 1
Description: as §1

Row | Structure (SMILES) | LD50 [1] [mg/kg] | ED50 [2] [mg/kg] | Spasmolytic activity (papaverine hydrochloride = 1) (rat isolated duodenum) | also measured
1 | O=C(O)CN1CCN(CCOC(c2ccccc2)c2ccccc2)CC1 [Derivative 1] | > 1600 | 400 | – | –
2 | O=C(O)CCN1CCN(CCOC(c2ccccc2)c2ccccc2)CC1 [Derivative 2] | 2250 | 80 | – | Anti-sleep activity in mice (sleep in mice): Nil; secondary action on the dog cardiovascular system [3]: devoid of any secondary action; ED50 [4]: 55 mg/kg; selectivity ratio [5]: 0.6; Potentiation of mortality with pentetrazole in mice ED50 [6]: 320 mg/kg
3 | O=C(O)CCCN1CCN(CCOC(c2ccccc2)c2ccccc2)CC1 [Derivative 3] | 1500 | 80 | – | Anti-sleep activity in mice (sleep in mice): Nil; secondary action on the dog cardiovascular system [3]: devoid of any secondary action; ED50 [4]: 160 mg/kg; selectivity ratio [5]: 1.25; Potentiation of mortality with pentetrazole in mice ED50 [6]: > 300 mg/kg
4 | O=C(O)CN1CCN(CCOC(c2ccccc2)c2ccc(F)cc2)CC1 (stereo not drawn) [Derivative 4] | 1600 | 60 | – | –
5 | O=C(O)CCN1CCN(CCOC(c2ccccc2)c2ccc(F)cc2)CC1 (stereo not drawn) [Derivative 5] | 800 | 22 | – | Anti-sleep activity in mice (sleep in mice): Nil; secondary action on the dog cardiovascular system [3]: devoid of any secondary action; chronic toxicity [7]: low chronic toxicity; tolerance in chronic administration [7]: well tolerated; ED50 [4]: 100 mg/kg; selectivity ratio [5]: 0.6; presence of a psychostimulating action ([8]; 6 adults): 5 out of 6; Nil results, number of cases ([8]; neurasthenia (1 case)): 1 cases; Excellent results, number of cases ([8]; neurotic depression (2 cases)): 1 cases; Good results, number of cases ([8]; neurotic depression (2 cases)): 1 cases; Excellent results, number of cases ([8]; school overwork (3 cases)): 2 cases; Good results, number of cases ([8]; school overwork (3 cases)): 1 cases; Potentiation of mortality with pentetrazole in mice ED50 [6]: 160 mg/kg; ED50 (aggressiveness in mice): 6.5 mg/kg; anorectic action in rats (Anorectic action in rats): absence of anorectic action
6 | O=C(O)CCN1CCN(CCOC(c2ccccc2)c2cccc(C(F)(F)F)c2)CC1 (stereo not drawn) [Derivative 6] | 1200 | 200 | – | –
7 | COc1ccccc1C(OCCN1CCN(CCC(=O)O)CC1)c1ccccc1 (stereo not drawn) [Derivative 7] | 1400 | > 400 | – | –
8 | O=C(O)CCN1CCN(CCOC(c2ccccc2)c2ccc(Cl)cc2)CC1 (stereo not drawn) [Derivative 8] | 1000 | 30 | – | –
9 | Cc1ccc(C(OCCN2CCN(CCC(=O)O)CC2)c2ccccc2)cc1 (stereo not drawn) [Derivative 9] | 1400 | 100 | – | –
10 | COc1cc(C(OCCN2CCN(CCC(=O)O)CC2)c2ccccc2)cc(OC)c1OC (stereo not drawn) [Derivative 10] | > 1600 | > 400 | – | –
11 | O=C(O)CCN1CCN(CCOC(c2ccc(F)cc2)c2ccc(F)cc2)CC1 [Derivative 11] | 700 | 30 | 0,1 | –
12 | O=C(O)CCCN1CCN(CCOC(c2ccccc2)c2ccc(F)cc2)CC1 (stereo not drawn) [Derivative 12] | 1200 | 35 | 0,1 | –
13 | O=C(O)CCCCN1CCN(CCOC(c2ccccc2)c2ccc(F)cc2)CC1 (stereo not drawn) [Derivative 13] | 1400 | 35 | – | –
14 | COC(=O)CCCCN1CCN(CCOC(c2ccc(F)cc2)c2ccc(F)cc2)CC1 [Derivative 14] | 500 | 45 | 3,5 | –
15 | CCOC(=O)CN1CCN(CCOC(c2ccc(F)cc2)c2ccc(F)cc2)CC1 [Derivative 15] | 1200 | 40 | 6,5 | –
16 | CCOC(=O)CCN1CCN(CCOC(c2ccccc2)c2ccccc2)CC1 [Derivative 16] | 2000 | 100 | 1,5 | Anti-sleep activity in mice (sleep in mice): Nil; secondary action on the dog cardiovascular system [3]: devoid of any secondary action; ED50 [4]: 190 mg/kg; selectivity ratio [5]: 0.8; Potentiation of mortality with pentetrazole in mice ED50 [6]: > 400 mg/kg
17 | CCOC(=O)CCN1CCN(CCOC(c2ccccc2)c2ccccc2Cl)CC1 (stereo not drawn) [Derivative 17] | 1600 | > 200 | 1,5 | –
18 | CCOC(=O)CCN1CCN(CCOC(c2ccccc2)c2ccc(Cl)cc2)CC1 (stereo not drawn) [Derivative 18] | 1400 | 30 | 1 | –

Row | Structure (SMILES) | LD50 [1] [mg/kg] | ED50 [2] [mg/kg] | Spasmolytic activity (papaverine hydrochloride = 1) (rat isolated duodenum) | also measured
19 | CCOC(=O)CCN1CCN(CCOC(c2ccccc2)c2ccc(C)cc2)CC1 (stereo not drawn) [Derivative 19] | > 1600 | > 400 | 1,5 | –
20 | CCOC(=O)CCN1CCN(CCOC(c2ccccc2)c2ccc([N+](=O)[O-])cc2)CC1 (stereo not drawn) [Derivative 20] | > 1600 | > 400 | 5,5 | –
21 | CCOC(=O)CCN1CCN(CCOC(c2ccc(C)cc2)c2ccc(F)cc2)CC1 (stereo not drawn) [Derivative 22] | > 1600 | 35 | 5,5 | –
22 | CCOC(=O)CCCN1CCN(CCOC(c2ccc(F)cc2)c2ccc(F)cc2)CC1 [Derivative 23] | 800 | 50 | 13,5 | In vitro spasmolytic action on the rabbit isolated ear (rabbit isolated ear): 0,3; spasmolytic activity for the rat isolated duodenum (in words) (rat isolated duodenum): greatest; In vitro spasmolytic action on the rabbit aorta (rabbit aorta): 3; In vivo spasmolytic action on paw vessels of the dog (paw vessels of the dog): 2; In vitro atropinic action on the Guinea-pig ileum (Guinea-pig ileum): > 0,01; In vitro adrenolytic action on the Guinea-pig seminal vesicle [9]: 3
23 | CCOC(=O)CCCN1CCN(CCOC(c2ccccc2)c2ccc(F)cc2)CC1 (stereo not drawn) [Derivative 24] | 700 | 50 | 2,5 | –
24 | CCCCOC(=O)CCN1CCN(CCOC(c2ccc(F)cc2)c2ccc(F)cc2)CC1 [Derivative 25] | 500 | 40 | 0,5 | –
25 | CCCCCCOC(=O)CCN1CCN(CCOC(c2ccc(F)cc2)c2ccc(F)cc2)CC1 [Derivative 26] | 800 | 200 | 1 | –
26 | CCOC(=O)CCN1CCN(CCCOC(c2ccccc2)c2ccccc2)CC1 [Derivative 27] | 800 | 50 | 3,5 | –
27 | CCOC(=O)CCN1CCN(CCCOC(c2ccccc2)c2ccc(F)cc2)CC1 (stereo not drawn) [Derivative 28] | 800 | < 100 | 6,5 | –
28 | N#CCCN1CCN(CCOC(c2ccccc2)c2ccccc2)CC1 [Derivative 29] | 300 | 40 | 1 | –
29 | NC(=O)CCN1CCN(CCOC(c2ccccc2)c2ccccc2)CC1 [Derivative 30] | 1000 | 80 | 0,1 | –
30 | O=C(CN1CCN(CCOC(c2ccccc2)c2ccccc2)CC1)N1CCOCC1 [Derivative 31] | 800 | 100 | 0,5 | –
31 | COc1ccccc1N1CCN(C(=O)CN2CCN(CCOC(c3ccccc3)c3ccccc3)CC2)CC1 [Derivative 32] | 1200 | 100 | 2 | –
32 | O=C(CN1CCN(CCOC(c2ccccc2)c2ccccc2)CC1)N1CCN(Cc2ccc3c(c2)OCO3)CC1 [Derivative 33, 1-(piperonylpiperazinocarbonylmethyl)-4-(2-benzhydryloxyethyl)piperazine trimaleate] | 600 | 25 | 10,5 | In vitro spasmolytic action on the rabbit isolated ear (rabbit isolated ear): 0,5; spasmolytic activity for the rat isolated duodenum (in words) (rat isolated duodenum): greatest; In vitro spasmolytic action on the rabbit aorta (rabbit aorta): 5; In vivo spasmolytic action on paw vessels of the dog (paw vessels of the dog): 9; In vitro atropinic action on the Guinea-pig ileum (Guinea-pig ileum): > 0,01; In vitro adrenolytic action on the Guinea-pig seminal vesicle [9]: 6
33 | O=C(CN1CCN(CCOC(c2ccc(F)cc2)c2ccc(F)cc2)CC1)N1CCN(Cc2ccc3c(c2)OCO3)CC1 [Derivative 34] | > 1600 | 160 | 1,5 | –
34 | CCCC(OCCN1CCN(CCC(=O)O)CC1)c1ccccc1 (stereo not drawn) [Derivative 35] | > 1600 | 60 | – | –
35 | CCCC(OCCN1CCN(CCC(=O)OCC)CC1)c1ccc(F)cc1 (stereo not drawn) [Derivative 36] | 1600 | > 100 | 5 | –
